The results in this text go back to patent US6319910A, “Method for inhibiting cyclooxygenase-2 and tumor necrosis factor alpha” (Hospital for Joint Diseases, priority 1998, dated 2001).

The target of experiment [1] is T1, COX-2 (Mus musculus, UniProt Q05769).
T1 construct: using total unfractionated cell extracts; endogenous in cells; host or cells: RAW 264.7 cells, LPS-induced; cell-free extract
T1 sequence (Q05769 18-604): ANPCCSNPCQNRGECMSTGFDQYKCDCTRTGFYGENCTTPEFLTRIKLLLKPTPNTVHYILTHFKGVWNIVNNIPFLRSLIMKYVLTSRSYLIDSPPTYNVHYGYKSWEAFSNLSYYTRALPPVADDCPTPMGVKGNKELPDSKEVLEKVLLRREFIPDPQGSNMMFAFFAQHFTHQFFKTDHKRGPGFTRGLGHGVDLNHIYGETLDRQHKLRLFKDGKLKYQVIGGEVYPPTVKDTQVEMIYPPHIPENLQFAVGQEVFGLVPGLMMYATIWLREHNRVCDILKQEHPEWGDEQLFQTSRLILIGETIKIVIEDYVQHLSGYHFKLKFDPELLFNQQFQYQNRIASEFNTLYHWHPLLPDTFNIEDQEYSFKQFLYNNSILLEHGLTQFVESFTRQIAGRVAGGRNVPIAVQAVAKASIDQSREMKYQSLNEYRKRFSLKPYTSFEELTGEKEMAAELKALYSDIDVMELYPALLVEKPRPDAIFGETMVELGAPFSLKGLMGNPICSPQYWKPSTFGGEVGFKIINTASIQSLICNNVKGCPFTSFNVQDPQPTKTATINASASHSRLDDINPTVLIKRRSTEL
The experiment is described as follows: COX-2 specific activity in cell-free extracts of LPS-stimulated RAW 264.7 cells (PGE2 by RIA). In kind it is biochemical, murine. The protocol: Raw 264.7 cells were stimulated with LPS and cell-free extracts were prepared as follows. RAW 264.7 cells were induced with LPS (100 ng/ml) in the presence or absence of tetracyclines or hydrocortisone for 14-20 hours. Following induction, the cells were pelleted at 4° C. and resuspended in Tris buffer: 10 mM, pH 7.4 containing 10 μg/ml each of chymostatin, antipain, leupeptin and pepstatin, 1 mM DDT and 1 mM PMSF. Cells were lysed in a Polytron PA 1200 homogenizer (Kinematica AG, Switzerland) with the cocktail of protease inhibitors after 3 cycles of rapid freeze-thawing. The lysate was centrifuged at 18,000 at 4° C. in an eppendorf centrifuge, and the resulting supernatant was used as cell-free extracts. The protein was measured by BCA assay reagent (Pierce, Rockford, Ill.) using BSA as standard. […] The specific enzyme activity was defined as ng of PGE2 released/mg protein/37° C. for 20 minutes.
RAW 264.7 cells were stimulated with 1 μg/ml of LPS for 16 hours and cell-free extracts were prepared as described above. The extracts were incubated with different modulators for 20 minutes at 37° C. before adding the substrate to initiate the enzyme reaction, which was terminated after 30 minutes by heat inactivation. The data represent one of the two experiments, the PGE2 analysis from each sample was done in triplicates n=3. The p value is a comparison between control and experimentals.

Experiment [2] has as its system OA-affected cartilage. The experiment is described as follows: Spontaneous nitrite/nitric oxide release by OA-affected cartilage (ex vivo organ culture). In kind it is cell-based, human. As to conditions: Table 2; 5 μg/ml. The protocol:
(§1) Human osteoarthritis affected cartilage spontaneously release nitric oxide (NO) and PGE2 in the medium as previously reported (Amin et al, 1995a; 1997a). The OA-organ cultures were set up as described (Amin et al, 1995a; 1997a). Briefly, total knee articular cartilage from tibial plateau and femoral condyle were harvested from OA-affected patients. The cartilage was mixed and cut into 3-mm discs and 4-6 discs were placed in triplicate or quadruplicate, in a 24-well plate in 2.0 ml of Ham's F-12 medium supplemented with 0.2% endotoxin free human albumin, 10 mM Hepes pH 7.4 and antibiotics in the presence of various modulators, as previously described (Amin et al, 1995a; 1997a). CMT-8 was used at pharmacologically relevant concentrations in DMSO (<0.01% final concentration) as carrier. An equivalent amount of DMSO was also added in the control cultures.
(§2) The p value between control and CMT-8 treated values for PGE2≤0.1 (insignificant) whereas the p values between NMMA treated cartilage and CMT-8 treated cartilage was ≤0.001 (significant). The data are represented as mean±SD as examined by T test when n=3. Data represent±SD value as determined by Student's t test n=4. The P values described are compared with control unstimulated OA-cartilage. The data represents one of the two similar experiments. P values for PGE2 and Nitrite=^a≤0.5; ^b≤0.1; ^c≤0.05; ^d≤0.01.

The subject of the next experiment is TNFα. The experiment in a line: TNFα release in the medium by HEK 293 cells permanently transfected with human proTNFα (ELISA). The following applies: words; for Effect on spontaneous TNFα release: FIG. 8, 16 hours. In kind it is cell-based. The protocol: HEK 293 cells were transfected with the proTNFα cDNA (wild) to prepare a stable cell line. […] A mutant form of proTNFα cDNA which could not be cleaved by the endogenous TNFα convertase (TACE) to release soluble TNFα was also transfected in separate human HEK 293 cells. The soluble TNFα was estimated by ELISA from the wild type and mutant transfected cells from the medium (FIG. 6).
HEK 293 cells were grown as previously described by American Type Culture Collection (ATCC). […] The HEK 293 cells were incubated with CMT-3 to examine the effects of CMT-3 on TNFα release in the medium.
HEK 293 cells were grown under the conditions previously described by ATCC. Various compounds, including CMT-3 and doxycycline/minocyclines were incubated with proTNFα transfected HEK 293 cells releasing TNFα in the medium at 16 hours. […] Soluble TNFα was estimated by ELISA from the medium.
(ELISA stands for enzyme-linked immunosorbent assay.)

Experiment [3] relates to RAW 264.7 cells. The experiment is described as follows: PGE2 production/accumulation in LPS-stimulated RAW 264.7 cells. Type of experiment: cell-based, murine. As to conditions: for inhibition at 10 µg/mL: Mus musculus, RAW264.7, 16 h, read-out: PGE2 % Inhibition or (Increase). The protocol:
(§3) Murine macrophages (RAW 263.7 cells) which were grown in Dulbecco's modified eagle medium (DMEM) containing 10% fetal bovine serum, 2 mM glutamine, 50 U/ml penicillin and 50 μg/ml streptomycin, were stimulated with 100 ng/ml LPS to induce both NOS and COX-2 at 16 hr. […] The data presented in FIG. 1 represents mean±SD as examined by T test were n=3.
(§4) The effects of CMTs 1, 2, 3, 5 and 8 on PGE2 and NO accumulation in RAW 264.7 cells were further evaluated as described above for CMT-3. […]

Experiment [4] concerns RAW 264.7 cells. The experiment is described as follows: Nitrite (NO) production/accumulation in LPS-stimulated RAW 264.7 cells. In kind it is cell-based, murine. The following applies: for inhibition at 10 µg/mL: Mus musculus, RAW264.7, 16 h. The protocol:
as §3, §4

The test system of experiment [5] is OA-affected cartilage. The experiment in a line: Spontaneous PGE2 release by OA-affected cartilage (ex vivo organ culture). In kind it is cell-based, human. The following applies: Table 2; 5 μg/ml. Here is the method: as §1, §2
The test system of another experiment is NOS. The experiment is described as follows: NOS expression in LPS-stimulated murine macrophages. In kind it is cell-based. The following applies: FIG. 2; LPS 100 ng/ml; words. The protocol: (§5) RAW 263.7 cells were grown as previously described (Amin et al, 1995b). Murine macrophages stimulated with 100 ng/ml LPS were incubated with CMT-3 or tunicamycin (a glycosylation inhibitor). […] Nitrite and PGE2 were estimated as previously described (Amin et al, 1995b). It is quite possible that CMT-3 may inhibit COX-2 and PGE2 production by post translational modification of COX-2 which may be similar to tunicamycin inhibition. The data represents the mean±SD evaluated by T test (n=3).

For experiment [6], the system named is COX-2. The experiment is described as follows: Expression/modification (size) of COX-2 in LPS-stimulated murine macrophages, Western blot. In kind it is cell-based. As to conditions: LPS 100 ng/ml, words. The protocol: as §5
Murine macrophage cells were cultivated as previously described (Amin et al, 1995b). […] cells were stimulated with 100 ng/ml of LPS in the presence of CMT-3, CMT-5 and glycosylation inhibitor, tunicamycin. The cells were grown for 16 hr and harvested. The cell free extracts were prepared as previously described (Amin et al, 1995b). In FIG. 4A, 50 μg of protein was loaded in each well and run on SDS-PAGE gels and blotted onto Western blots using a specific anti COX-2 antibody as previously described (Amin et al, 1997a). The positive control is a standard COX-2. […] The size is approximately 2000 D smaller (CMT-3 form) than the native COX-2 shown as a standard. […] These experiments indicate that CMT-3 induces modification of the COX-2 protein. The SDS PAGE analysis and Western blotting of COX-2 was carried out as described above.
In general terms: A western blot detects proteins with antibodies after separation by electrophoresis.

The mark [7] stands for this setting: Experiment II, LPS 100 ng/ml, compound 10 μg/ml, 16 hours.
Setting [8] is: Experiment I, LPS 100 ng/ml, compound 10 μg/ml, 16 hours.

In the case of `CC(=O)Oc1ccccc1C(=O)O` [Aspirin, aspirin, reference compound], on COX-2 [1] (CMT-3 27 μM, CMT-8 27 μM, aspirin 56 μM, indomethacin 28 μM, words), the “Effect on specific activity of COX-2” value is “significantly inhibited the specific activity of COX-2”. In addition, the “COX-2 Specific Activity” value on COX-2 [1] (Table 3, cell-free extracts, 10 μg (aspirin amount not given)) stood at 2.1 ± 0.1 PGE2 ng/mg protein.
On to `C[C@@]1(O)c2cccc(O)c2C(O)=C2C(=O)[C@]3(O)C(O)=C(C(N)=O)C(=O)C[C@@H]3C[C@@H]21` [CMT-1, 4-dedimethylaminotetracycline], for which the Nitrite with OA-affected cartilage [2] is 82.0 ± 33.0 µM; with RAW 264.7 cells [4] (setting [8]) it was 50.8 µM; in the experiment with RAW 264.7 cells [4] (setting [7]), 20.3 µM. In addition, in the experiment with TNFα, the “Effect on spontaneous TNFα release” value was “inhibit the spontaneous TNFα release”. Besides, the “Inhibition of TNFα (summary statement)” value with TNFα (HEK 293 cells transfected with proTNFα cDNA, low levels) was “inhibiting TNFα”. In addition, the PGE2 accumulation with RAW 264.7 cells [3] (16 h, 10 ug/mL) was determined as 31.5 ± 2.5 ng/mL; in the experiment with RAW 264.7 cells [3] (setting [7]), 30.2 ± 8.0 ng/mL. Further, in the experiment on OA-affected cartilage [5], the PGE2 is 131.8 ± 37.7 ng/mL.
As to `CN(C)C1C(=O)C(C#N)=C(O)C2(O)C(=O)C3=C(O)c4c(O)cccc4C(C)(O)C3CC12` (stereo not shown) [CMT-2], the Nitrite is 84.0 ± 20.0 µM with OA-affected cartilage [2] and 23.3 ± 3.5 µM with RAW 264.7 cells [4] (setting [7]). Also, in the experiment with TNFα, the “Effect on spontaneous TNFα release” value is “not CMT-2 and CMT-5, inhibit the spontaneous TNFα release”. Moreover, the PGE2 accumulation in the experiment on RAW 264.7 cells [3] (setting [8]) was 26.8 ± 8.8 ng/mL; in the experiment on RAW 264.7 cells [3] (setting [7]), 22.9 ± 5.0 ng/mL. Further, the PGE2 in the experiment with OA-affected cartilage [5] came to 145.2 ± 61.6 ng/mL.
For `C[C@@H]1C[C@@H]([C@H](O)CC2CC(=O)NC(=O)C2)C(=O)[C@@H](C)C1` [Cycloheximide, cycloheximide, reference compound], the “Effect on TNFα release in the medium” value with TNFα (FIG. 7) is “inhibited the release of TNFα in the medium”. Moreover, the “Effect on spontaneous TNFα release” value in the experiment on TNFα is recorded as “inhibit the release of TNFα”.
With `C[C@]12CCC(=O)C=C1CC[C@@H]1[C@@H]2[C@@H](O)C[C@@]2(C)[C@H]1CC[C@]2(O)C(=O)CO` [Hydrocortisone, hydrocortisone, reference compound], the PGE2 accumulation in the experiment on RAW 264.7 cells [3] (16 h, 10 ug/mL) was found to be 12.3 ± 2.6 ng/mL; with RAW 264.7 cells [3] (setting [7]), 9.5 ± 0.5 ng/mL. Further, the inhibition at 10 µg/mL in the experiment on RAW 264.7 cells [3] (setting [8]) was found to be 52%; in the experiment with RAW 264.7 cells [3] (setting [7]) it was 50%; with RAW 264.7 cells [4] (setting [8]), 32%; with RAW 264.7 cells [4] (setting [7]), 40%. Further, the Nitrite with RAW 264.7 cells [4] (16 h, 10 ug/mL) is 34.3 µM; in the experiment with RAW 264.7 cells [4] (setting [7]), 12.9 µM.
As for tunicamycin [reference compound], the “Effect on NOS expression” value with NOS is reported as “inhibit”. In addition, the “Effect on COX-2 expression” value in the experiment on COX-2 [6] (FIG. 2) is listed as “inhibit”. The “Effect on size of COX-2” value in the experiment on COX-2 [6] (FIG. 4A, 16 hr, Western blot) is on record as “much smaller than the native form”. Besides, in the experiment with RAW 264.7 cells [3] (FIG. 2, LPS 100 ng/ml, words), the “Effect on PGE2 production” value is “inhibit”. In addition, the “Effect on NO production” value in the experiment with RAW 264.7 cells [4] (FIG. 2, LPS 100 ng/ml, words) is recorded as “inhibit”.

For orientation: inhibition means the percentage by which the read-out fell short of the control.
